# Source: patent US11986482B2, “Method of promoting antitumor or anti-cancer immunity” (City University of Hong Kong, priority 2021, dated 2024)
# Entries after “also recorded” stand apart in the source; their conditions may differ.
# Tests used:
# Rab27a = biological target: T1, Rab27a (Homo sapiens, UniProt P51159); assay: GST-SHD pulldown assay of Rab27a activity; type: cell-based; settings: HeLa cells, 1 μM
# T1 construct: western blot analysis of Rab27a in HeLa cells treated with or without 6J1 (1 μM) through a GST-SHD pulldown assay; endogenous in cells; host or cells: HeLa cells
# T1 sequence (P51159 1-221): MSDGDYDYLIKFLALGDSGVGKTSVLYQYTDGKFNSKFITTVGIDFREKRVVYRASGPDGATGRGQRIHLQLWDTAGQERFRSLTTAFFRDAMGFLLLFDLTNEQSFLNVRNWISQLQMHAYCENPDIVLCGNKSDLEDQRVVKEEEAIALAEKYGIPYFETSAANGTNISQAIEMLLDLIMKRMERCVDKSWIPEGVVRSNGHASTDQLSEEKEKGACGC
# Experimental: It has previously been shown that interfering with endosomal trafficking promotes exosome secretion. Moreover, PD-L1 has been reported to be enriched in exosomes and secreted outside the cell. Thus, inventors speculate that 6J1 may induce the secretion of the PD-L1 trapped in the endosomal compartments via exosomes. To determine whether 6J1 may induce the secretion of PD-L1 via exosomes, HeLa cells are treated with or without 6J1 (1 μM) for 24 h. The supernatant is collected. Inventors purify the exosomes from the supernatant of HeLa cells by sequential centrifugation. The concentration of extracellular vesicle is determined using a Nanosight nanoparticle analyzer. And HeLa cells are treated with or without 6J1 (1 μM) for 48 h. The cell and supernatant are collected for Western Blot analysis. […] Moreover, the activity of Rab27a in HeLa cells treated with or without 6J1 (1 μM) is examined with a GST-SHD pulldown assay.
# EGFR = EGFR degradation assay (EGF-488); type: cell-based; settings: HeLa cells, 6J1 1 μM 3 h, EGF-488 2 μg/ml, 2 h of EGF treatment
# Experimental: Furthermore, HeLa cells are pretreated with DMSO or 6J1 (1 μM) for 3 h. Then, cells are incubated with EGF-488 (2 μg/ml) on ice for 1 h followed by incubating in the complete medium at 37° C. in a CO2 incubator. Cells are fixed at the indicated times and imaged.
# HeLa cells = assay: Fluorescent transferrin conjugates recycling assay; type: cell-based; settings: compound 3 h, Transferrin-488 25 μg/ml, flow cytometry
# Experimental: A DQ-BSA endocytic trafficking assay screens these compounds. DQ-BSA, a self-quenching dye, is internalized into the cytoplasm by endocytosis, after which it is delivered to the lysosomes for degradation to relieve fluorescence-quenching, resulting in bright fluorescence in cells. HeLa cells are plated on 6-well plates and treated with the indicated compound for 3 h. Then, cells are replaced with Trafficking media containing 10 μg/ml DQ-green BSA with or without drugs (1 μM) and incubated at 37° C. in a 5% CO2 humidified cell culture chamber another 6 h followed by Flow cytometry analysis. […] Inventors also test whether these hit compounds can inhibit the recycling endosomal pathway by performing the fluorescent transferrin conjugates recycling assay. Iron-bound transferrin interacts with its receptor (TfR) to trigger the internalization of the iron-transferrin-TfR complex via clathrin-mediated endocytosis. Fe^3+ irons are subsequently dissociated from their ligands in the acidic endosome environment and released into the cytoplasm. […] Thus, the fluorescence intensity of fluorescent transferrin conjugates-labeled cells can reflect the recycling endocytic trafficking process. […] Cells are collected for flow cytometry analysis, and the mean fluorescence intensity of transferrin is quantified.
# 4T1 cells [1] = assay: 4T1-shNC or 4T1-shRab27A tumors in Balb/c nude mice; type: in vivo, mouse; settings: 30 mg/kg, daily, oral gavage
# Experimental: Inventors also implant control or Rab27a-knockout 4T1 cells into the fat pads of female Balb/c nude mice. The mice are randomly divided (n=4 per group) and treated with either buffer or 6J1 (30 mg/kg, daily) via oral gavage.
# 4T1 primary tumors = assay: Chemokine levels in microenvironment of 4T1 primary tumors; type: in vivo, mouse; settings: 4T1 tumors isolated at end of experiment
# Experimental: Inventors further measure the chemokines or cytokines in these primary tumor tissues. The tumors are isolated at the end of experiments, and the chemokine levels in the microenvironment of 4T1 primary tumors treated with the vehicle or 6J1 are determined by Flow cytometry-based quantification. In FIGS. 9a-9c, data are reported in μg/ml, standardized to the excised tumor weight (in grams); each dot represents one mouse.
# 4T1 cells [2] = assay: T cell-mediated tumor cell killing assay; type: cell-based, mouse; settings: 6J1 (1 µM) per FIG. 8d legend, CCK8 assay
# [3] = Repeated-dose oral gavage toxicity in rats, up to 7 days; settings: rat, in vivo
# Experimental: Inventors also evaluate the toxicity profile following oral gavage administration of 6J1 at dose levels of 0 (vehicle), 150, 450, and 1000 mg/kg once daily for up to 7 consecutive days to rats. Rats of the 300 mg/kg group are tested separately from other groups (showing higher initial weight than other groups), and rats of 450 and 1000 mg/kg groups are terminated on day 4 due to several clinical findings.
# [4] = system: HeLa, A549 and MDA-MB-231 cell lines; assay: Cytotoxicity, propidium iodide cell death ratio; type: cell-based; settings: 24 h or 48 h
# Experimental: The inventors also test the cytotoxicity of 6J1 in several cancer cell lines, HeLa, A549 and MDA-MB-231 cell lines. Cells are grown in 96-well plates in triplicate and treated with or without 6J1 at the concentrations of 0, 0.01, 0.1, 1, 10 and 100 μM indicated for 24 h or 48 h. They are then stained with propidium iodide (PI) or Hochest 33342 to measure the cell death ratio and cell number, respectively. […] Inventors also test the cytotoxicity of 6J1 in 4T1 cells. 4T1 cells are plated in 96-well plates in triplicate and treated with or without 6J1 at the concentrations of 0, 0.01, 0.1, 1, 5, 10, 20, 40, 80 and 100 μM indicated for 24 h or 48 h. The cell viability was then quantified via the MTT assay.
structure (smiles),measurement,setting,value
OCCOCCN(c1ccccc1)c1nc(N/N=C/c2cccc(I)c2)nc(N2CCOCC2)n1 [Compound 6J1],activity of Rab27a-GTPase,Rab27a,significantly increases the activity of Rab27a-GTPase
same,EGFR degradation,EGFR,blocks the EGFR degradation
same,recycling endosomal trafficking of transferrin (mean fluorescence intensity),HeLa cells,effectively inhibit the recycling endosomal trafficking of transferrin; also recorded: performs best
same,anti-cancer effect of 6J1 or 6J1 with Rab27a knockout in immunocompromised mice,4T1 cells [1],dramatically abolished
same,"secretion of chemokines CCL2, CCL3, CCL4, CXCL9 in tumor microenvironment",4T1 primary tumors,significantly increases the secretion of some chemokines
same,"secretion of chemokines CCL5, CCL11, CCL17, CCL22, CXCL1, CXCL5, CXCL10, CXCL13 in tumor microenvironment",4T1 primary tumors,little or only subtle effects on others; also recorded: little or only subtly effects on others
same,sensitivity of 4T1 cells to pre-activated T cell-mediated cytolysis,4T1 cells [2],more sensitive to pre-activated T cell-mediated cytolysis
same,findings at 450 and 1000 mg/kg,[3],severe clinical findings
same,therapeutic window in experimental animals,[3],at least 10 fold
same,clinical signs at 300 mg/kg,"[3]; po, 300 mg/kg","soft feces, hunched posture, and reduced feces"
same,finding at 1000 mg/kg,"[3]; po, 1000 mg/kg",mortality
same,dose levels not tolerated on repeated daily dosing,"[3]; po, 4 days",≥ 450 mg/kg
same,repeated daily dosing considered tolerated up to,"[3]; po, 7 days",up to 300 mg/kg
same,cell death,[4]; 0.01-100 μM,induces cell death in a concentration-dependent manner
same,cell death at effective concentrations,[4]; ≤1 μM,hardly induces any cell death
